pIC50: −log10 of the molar value. Where two headings read alike, the source gives them in different places.
Molecular target: recombinant human SAE enzyme (Homo sapiens (Human), UniProt Q9UBT2)
Experiment: SAE HTRF enzyme assay
Type: biochemical
Conditions: for IC50: SAE inhibition, class symbols, legend in nM; for pIC50: class symbols A/B/C; for inhibition at 0.111 µM: read-out: Percent Inhibition
Method in brief: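 HTRF read-out using Eu-cryptate anti-Flag and allophycocyanin anti-GST antibodies, added with EDTA stop buffer and read after 2 h at 24 °C. The preceding reaction ran 105 min at 24 °C: 0.11 nM recombinant SAE, 0.5 μM ATP, Sumo-Flag, Ubc9-GST, pH 7.5. Values given as single-concentration inhibition or IC50.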

[1] = SAE inhibition at compound concentration 0.111 μM

recombinant human SAE enzyme, sequence (Q9UBT2 whole entry): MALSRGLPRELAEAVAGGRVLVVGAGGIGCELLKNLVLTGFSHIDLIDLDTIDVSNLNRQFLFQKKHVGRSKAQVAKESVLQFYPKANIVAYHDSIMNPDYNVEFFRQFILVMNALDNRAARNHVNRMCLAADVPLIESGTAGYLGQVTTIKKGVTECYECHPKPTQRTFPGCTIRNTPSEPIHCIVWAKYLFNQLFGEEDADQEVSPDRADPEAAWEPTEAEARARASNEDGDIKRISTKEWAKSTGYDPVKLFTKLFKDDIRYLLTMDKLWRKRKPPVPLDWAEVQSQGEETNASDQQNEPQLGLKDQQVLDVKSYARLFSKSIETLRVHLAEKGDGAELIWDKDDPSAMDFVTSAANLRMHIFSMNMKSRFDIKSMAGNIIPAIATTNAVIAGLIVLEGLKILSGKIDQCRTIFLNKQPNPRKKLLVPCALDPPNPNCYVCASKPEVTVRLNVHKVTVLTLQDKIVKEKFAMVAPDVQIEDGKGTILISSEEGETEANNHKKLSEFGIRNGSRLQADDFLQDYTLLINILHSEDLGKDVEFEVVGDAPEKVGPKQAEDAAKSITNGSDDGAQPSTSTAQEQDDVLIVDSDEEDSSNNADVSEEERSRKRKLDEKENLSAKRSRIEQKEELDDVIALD
recombinant human SAE enzyme, sequence (Q9UBE0 whole entry partner): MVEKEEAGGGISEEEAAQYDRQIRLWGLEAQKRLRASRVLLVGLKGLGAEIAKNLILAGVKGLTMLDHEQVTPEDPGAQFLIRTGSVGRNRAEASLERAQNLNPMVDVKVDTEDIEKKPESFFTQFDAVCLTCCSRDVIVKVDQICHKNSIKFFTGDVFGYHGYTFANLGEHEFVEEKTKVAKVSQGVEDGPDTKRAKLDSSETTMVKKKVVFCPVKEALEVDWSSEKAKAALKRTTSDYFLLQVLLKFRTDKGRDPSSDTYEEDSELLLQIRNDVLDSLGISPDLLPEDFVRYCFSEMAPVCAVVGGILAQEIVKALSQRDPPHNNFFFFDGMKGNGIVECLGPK

COc1ccc2c(n1)[C@H](c1cc(C(=O)c3cncnc3N[C@@H]3C[C@H](COS(N)(=O)=O)[C@@H](O)C3)sc1C)OCC2 (mixture of isomers) [I-339, [(1R,2S,4R)-2-hydroxy-4-{[5-({4-[(8S)-2-methoxy-5,8-dihydro-6H-pyrano[3,4-b]pyridin-8-yl]-5-methyl-2-thienyl}carbonyl)pyrimidin-4-yl]amino}cyclopentyl]methyl sulfamate and [(1R,2S,4R)-2-hydroxy-4-{[5-({4-[(8R)-2-methoxy-5,8-dihydro-6H-pyrano[3,4-b]pyridin-8-yl]-5-methyl-2-thienyl}carbonyl)pyrimidin-4-yl]amino}cyclopentyl]methyl sulfamate]
Percent Inhibition [1]: 99% | IC50: < 10 nM

C#Cc1ccc2c(c1)[C@H](c1cc(C(=O)c3cncnc3N[C@@H]3C[C@H](COS(N)(=O)=O)[C@@H](O)C3)sc1C)OCC2 (single isomer, unassigned) [I-252b, [(1R,2S,4R)-4-{[5-({4-[(1R)-7-ethynyl-3,4-dihydro-1H-isochromen-1-yl]-5-methyl-2-thienyl}carbonyl)pyrimidin-4-yl]amino}-2-hydroxycyclopentyl]methyl sulfamate or [(1R,2S,4R)-4-{([5-({4-[(1S)-7-ethynyl-3,4-dihydro-1H-isochromen-1-yl]-5-methyl-2-thienyl}carbonyl)pyrimidin-4-yl]amino}-2-hydroxycyclopentyl]methyl sulfamate]
Percent Inhibition (Concentration 0.111 μM): 98 | pIC50: > 8.00

C[C@](O)(c1cccc(Cl)c1)c1coc(C(=O)c2cncnc2N[C@@H]2C[C@H](COS(N)(=O)=O)[C@@H](O)C2)c1 (single isomer, unassigned) [I-30a, {(1R,2S,4R)-4-[(5-{4-[(1S)-1-(3-chlorophenyl)-1-hydroxyethyl]-2-furoyl}pyrimidin-4-yl)amino]-2-hydroxycyclopentyl}methyl sulfamate or {(1R,2S,4R)-4-[(5-{4-[(1R)-1-(3-chlorophenyl)-1-hydroxyethyl]-2-furoyl}pyrimidin-4-yl)amino]-2-hydroxycyclopentyl}methyl sulfamate]
Percent Inhibition (Concentration 0.111 μM): 100 | pIC50: > 8.00

Cc1sc(C(=O)c2cncnc2N[C@@H]2C[C@H](COS(N)(=O)=O)[C@@H](O)C2)cc1[C@H](O)c1cccc(Cl)c1 (single isomer, unassigned) [I-11a, [(1R,2S,4R)-4-{[5-({4-[(R)-(3-chlorophenyl)(hydroxy)methyl]-5-methyl-2-thienyl}carbonyl)pyrimidin-4-yl]amino}-2-hydroxycyclopentyl]methyl sulfamate or [(1R,2S,4R)-4-{[5-({4-[(S)-(3-chlorophenyl)(hydroxy)methyl]-5-methyl-2-thienyl}carbonyl)pyrimidin-4-yl]amino}-2-hydroxycyclopentyl]methyl sulfamate]
Percent Inhibition (Concentration 0.111 μM): 93 | pIC50: > 8.00

Cc1sc(C(=O)c2cncnc2N[C@@H]2C[C@H](COS(N)(=O)=O)[C@@H](OC(=O)CN)C2)cc1[C@@H]1OCCc2ccc(Cl)cc21 [I-330, (1S,2R,4R)-4-{[5-({4-[(1R)-7-chloro-3,4-dihydro-1H-isochromen-1-yl]-5-methyl-2-thienyl}carbonyl)pyrimidin-4-yl]amino}-2-[(sulfamoyloxy)methyl]cyclopentyl aminoacetate]
inhibition at 0.111 µM [1]: 34% | IC50: 100 to 1000 nM

Cc1oc(C(=O)c2cncnc2N[C@@H]2C[C@H](COS(N)(=O)=O)[C@@H](O)C2)cc1C1OCCc2ccccc21 (single isomer, unassigned) [I-272b, {(1R,2S,4R)-4-[(5-{4-[(1R)-3,4-dihydro-1H-isochromen-1-yl]-5-methyl-2-furoyl}pyrimidin-4-yl)amino]-2-hydroxycyclopentyl}methyl sulfamate or {(1R,2S,4R)-4-[(5-{4-[(1S)-3,4-dihydro-1H-isochromen-1-yl]-5-methyl-2-furoyl}pyrimidin-4-yl)amino]-2-hydroxycyclopentyl}methyl sulfamate]
Percent Inhibition (Concentration 0.111 μM): 97 | pIC50: > 8.00

NS(=O)(=O)OC[C@H]1C[C@@H](Nc2ncncc2C(=O)c2cc([C@@]3(c4ccccc4)CCCO3)cs2)C[C@@H]1O (single isomer, unassigned) [I-32b, [(1R,2S,4R)-2-hydroxy-4-{[5-({4-[(2S)-2-phenyltetrahydrofuran-2-yl]-2-thienyl}carbonyl)pyrimidin-4-yl]amino}cyclopentyl]methyl sulfamate or [(1R,2S,4R)-2-hydroxy-4-{[5-({4-[(2R)-2-phenyltetrahydrofuran-2-yl]-2-thienyl}carbonyl)pyrimidin-4-yl]amino}cyclopentyl]methyl sulfamate]
Percent Inhibition (Concentration 0.111 μM): 90 | pIC50: 7.00 to 8.00

N[C@H](c1cccc(Br)c1)c1cc(C(=O)c2cncnc2N[C@@H]2C[C@H](COS(N)(=O)=O)[C@@H](O)[C@H]2O)sc1Cl (single isomer, unassigned) [I-24a, [(1R,2R,3S,4R)-4-{[5-({4-[(R)-amino(3-bromophenyl)methyl]-5-chloro-2-thienyl}carbonyl)pyrimidin-4-yl]amino}-2,3-dihydroxycyclopentyl]methyl sulfamate or [(1R,2R,3S,4R)-4-{[5-({4-[(S)-amino(3-bromophenyl)methyl]-5-chloro-2-thienyl}carbonyl)pyrimidin-4-yl]amino}-2,3-dihydroxycyclopentyl]methyl sulfamate]
Percent Inhibition (Concentration 0.111 μM): 101 | pIC50: > 8.00

NS(=O)(=O)OC[C@H]1C[C@@H](Nc2ncncc2C(=O)c2cc(Cc3cccc(I)c3)cs2)C[C@@H]1O [I-62, {(1R,2S,4R)-2-hydroxy-4-[(5-{[4-(3-iodobenzyl)-2-thienyl]carbonyl}pyrimidin-4-yl)amino]cyclopentyl}methyl sulfamate]
inhibition at 0.111 µM (Concentration 0.111 μM): 98%

Cc1sc(C(=O)c2cncnc2N[C@@H]2C[C@H](COS(N)(=O)=O)[C@@H](O)[C@H]2O)cc1[C@@H]1OCCc2ccccc21 (single isomer, unassigned) [I-250b, [(1R,2R,3S,4R)-4-{[5-({4-[(1R)-3,4-dihydro-1H-isochromen-1-yl]-5-methyl-2-thienyl}carbonyl)pyrimidin-4-yl]amino}-2,3-dihydroxycyclopentyl]methyl sulfamate or [(1R,2R,3S,4R)-4-{[5-({4-[(1S)-3,4-dihydro-1H-isochromen-1-yl]-5-methyl-2-thienyl}carbonyl)pyrimidin-4-yl]amino}-2,3-dihydroxycyclopentyl]methyl sulfamate]
Percent Inhibition (Concentration 0.111 μM): 98 | pIC50: > 8.00

Cc1sc(C(=O)c2cncnc2N[C@@H]2C[C@H](COS(N)(=O)=O)[C@@H](O)[C@H]2O)cc1[C@@H]1NCCc2ccc(Br)cc21 (single isomer, unassigned) [I-247a, [(1R,2R,3S,4R)-4-{[5-({4-[(1R)-7-bromo-1,2,3,4-tetrahydroisoquinolin-1-yl]-5-methyl-2-thienyl}carbonyl)pyrimidin-4-yl]amino}-2,3-dihydroxycyclopentyl]methyl sulfamate or [(1R,2R,3S,4R)-4-{[5-({4-[(1S)-7-bromo-1,2,3,4-tetrahydroisoquinolin-1-yl]-5-methyl-2-thienyl}carbonyl)pyrimidin-4-yl]amino}-2,3-dihydroxycyclopentyl]methyl sulfamate]
Percent Inhibition (Concentration 0.111 μM): 100 | pIC50: > 8.00

Cc1sc(C(=O)c2cncnc2N[C@@H]2C[C@H](COS(N)(=O)=O)[C@@H](O)C2)cc1Cn1cc(Br)cc1C#N [I-148, [(1R,2S,4R)-4-{[5-({4-[(4-bromo-2-cyano-1H-pyrrol-1-yl)methyl]-5-methyl-2-thienyl}carbonyl)pyrimidin-4-yl]amino}-2-hydroxycyclopentyl]methyl sulfamate]
inhibition at 0.111 µM (Concentration 0.111 μM): 91% | pIC50: > 8.00

Cc1sc(C(=O)c2cncnc2N[C@@H]2C[C@H](COS(N)(=O)=O)[C@@H](O)C2)cc1C1OCCc2oc(Cl)cc21 (single isomer, unassigned) [I-298b, [(1R,2S,4R)-4-{[5-({4-[(4R)-2-chloro-6,7-dihydro-4H-furo[3,2-c]pyran-4-yl]-5-methyl-2-thienyl}carbonyl)pyrimidin-4-yl]amino}-2-hydroxycyclopentyl]methyl sulfamate or [(1R,2S,4R)-4-{[5-({4-[(4S)-2-chloro-6,7-dihydro-4H-furo[3,2-c]pyran-4-yl]-5-methyl-2-thienyl}carbonyl)pyrimidin-4-yl]amino}-2-hydroxycyclopentyl]methyl sulfamate]
Percent Inhibition [1]: 98% | IC50: < 10 nM

Cc1sc(C(=O)c2cncnc2N[C@@H]2C[C@H](COS(N)(=O)=O)[C@@H](O)[C@@H]2F)cc1[C@H]1OCCc2ccc(Cl)cc21 (mixture of isomers) [I-264, [(1R,2R,3R,4R)-4-{[5-({4-[(1S)-7-chloro-3,4-dihydro-1H-isochromen-1-yl]-5-methyl-2-thienyl}carbonyl)pyrimidin-4-yl]amino}-3-fluoro-2-hydroxycyclopentyl]methyl sulfamate and [(1R,2R,3R,4R)-4-{[5-({4-[(1R)-7-chloro-3,4-dihydro-1H-isochromen-1-yl]-5-methyl-2-thienyl}carbonyl)pyrimidin-4-yl]amino}-3-fluoro-2-hydroxycyclopentyl]methyl sulfamate]
Percent Inhibition (Concentration 0.111 μM): 100 | pIC50: > 8.00

CC(C)(O)c1ccc(C(=O)c2cncnc2N[C@@H]2C[C@H](COS(N)(=O)=O)[C@@H](O)[C@H]2O)s1 [I-202, {(1R,2R,3S,4R)-2,3-dihydroxy-4-[(5-{[5-(2-hydroxypropan-2-yl)-2-thienyl]carbonyl}pyrimidin-4-yl)amino]cyclopentyl}methyl sulfamate]
inhibition at 0.111 µM (Concentration 0.111 μM): 60% | pIC50: 7.00 to 8.00
